{
  "source": "patent US4871774A",
  "about": "“Medical treatment” (The Boots Company PLC, priority 1987, dated 1989)",
  "key": {"[1]": {"test_system": "brain DOPAC (turnover of dopamine)", "assay": "Turnover of dopamine in rodent brains by determination of DOPAC concentrations (rat)", "format": "in vivo, rat (Sprague-Dawley)", "details": "10 mg/kg oral, 2 h", "text": "(§1) (7) Measurement of the turnover of dopamine in rodent brains by determination of DOPAC concentrations following drug administration\n(§2) Inhibition of dopamine reuptake in the brain reduces the rate at which dopamine is synthesised and metabolised (the turnover rate). This can be assessed by measuring the amount of the dopamine metabolite DOPAC (dihydroxyphenylacetic acid) which accumulates in the brains of rats and mice. In addition, the administration of probenecid blocks active transport of DOPAC out of the brain. The subsequent rise in brain DOPAC concentrations is attenuated by drugs which inhibit dopamine reuptake.\nOne group of animals was killed two hours later. An additional group was administered probenecid (200 mg/kg i.p.; Sigma Chemical Co.) 30 minutes after the drug and then killed after a further 90 minutes. The animals were killed by decapitation and brains were rapidly removed and dissected on an ice-chilled porcelain plate. They were cut longitudinally along the midline; one half was retained for whole brain analysis while the striatum was dissected from the other. Tissues were immediately frozen in liquid N2 and stored over dry ice (-80° C.) until assay. Whole brain tissue was homogenised in 5 volumes 0.4M perchloric acid (containing 0.01% (w/v) Na2 S2 O3, 0.1% (w/v) EDTA) and striata in 600 μl using a Polytron (setting 6; 20 seconds) fitted with a microprobe (PT-7). Samples were then centrifuged at 30,000×g (whole brain samples) or at 3,500×g (striata) using a microfuge (Beckman) set up to take 1200 μl polypropylene tubes. Aliquots (50 μl) of the clear supernatants were then injected automatically into the chromatographic system for the separation and quantification of DOPAC.\nHigh pressure liquid chromatography (HPLC) combined with electrochemical detection (ECD) was employed to assay DOPAC. A mobile phase (0.1M CH3 OH (84:16%) containing 0.1% octanesulphonic acid, 0.1% EDTA and 0.01% Na2 S2 O3) was delivered by a Dupont 870 pump module at a flow-rate of 1.0 ml/min to a reverse-phase analytical column (25×0.4cm) and guard column (both packed with 5 μm Spherisorb ODS 2) maintained at 45° C. in a thermostatically controlled cabinet. Automatic sample injection was provided by a WISP 710B module (Waters Associates) and ECD was performed using a Bioanalytical Systems LC4A controller and cell, with a glassy carbon electrode maintained at +0.65 v versus a Ag-AgCl reference electrode. The controller was set at 20 nA full-scale and output from the cell recorded using a Spectra-Physics 4100 automatic computing integrator. Quantification of DOPAC was effected by the computing integrator after calibration of the HPLC-ECD system using DOPAC of known concentration and including isoprenaline as an internal standard. […]"}, "[2]": {"test_system": "uptake of dopamine into striatal synaptosomes", "assay": "In vitro inhibition of dopamine uptake (14C-dopamine, rat striatal synaptosomes)", "format": "biochemical, rat (Sprague-Dawley)", "details": "for IC50: 0.17 μM 14C-dopamine", "protocol": "(1) In vitro inhibition of dopamine uptake\nMale Sprague-Dawley rats (Charles River) were killed by cervical dislocation and the brains removed and placed in an ice-cold oxygenated Krebs solution containing 120 mM NaCl, 4.7 mM KCl, 2.1 mM KH2 PO4, 1.2 mM CaCl2, 0.6 mM MgSO4, 25 mM NaHCO3 and 11 mM glucose. The brains were then dissected according to the method of Glowinski and Iversen [J. Neurochem. (1966) 13 655-669] and the striata removed. The samples of striata were pooled, weighed and transferred to a glass homogenising vessel on ice, containing oxygenated 0.32M sucrose solution (20 volumes). […] The homogenate was centrifuged at 1000×g for 10 minutes at 4° C. and the supernatant containing a suspension of synaptosomes was used in the dopamine uptake inhibition tests described below. […] A solution of ^14 C-dopamine hydrochloride (Amersham International) was added (0.2 ml) to give a final concentration of 0.17 μM. The incubation was continued for a further 5 minutes before the contents of the tubes were filtered under vacuum through Whatman GF/F filters which were washed with ice-cold Krebs solution (2×5 ml). The filters were placed in scintillation vials containing 10 ml scintillation fluid (ES-299 supplied by Packard Instruments) and the radioactivity in the vials counted on a Packard 4530 scintillation counter. In each experiment there was a control tube in which no test compound was present, 3 tubes in which the compound being tested was present at one of three concentrations (100, 10 and 1 μM) and a background tube containing no test compound which was maintained at 0° C. to determine passive ^14 C-dopamine uptake. The count for each tube was registered in counts per minute (cpm) and the % inhibition of uptake (I) calculated from the formula [formula] […] The concentration which gave 50% inhibition of uptake was then calculated and is given below as the IC50 figure for each experiment."}, "[3]": {"test_system": "brain DOPAC (turnover of dopamine)", "assay": "Turnover of dopamine in rodent brains by determination of DOPAC concentrations (mouse)", "format": "in vivo, mouse (CD1)", "details": "whole brain, 10 mg/kg oral, 2 h", "text": "as §1, §2\nOne group of animals was killed two hours later. […] Aliquots (50 μl) of the clear supernatants were then injected automatically into the chromatographic system for the separation and quantification of DOPAC.\nHigh pressure liquid chromatography (HPLC) combined with electrochemical detection (ECD) was employed to assay DOPAC. […] The controller was set at 20 nA full-scale and output from the cell recorded using a Spectra-Physics 4100 automatic computing integrator. Quantification of DOPAC was effected by the computing integrator after calibration of the HPLC-ECD system using DOPAC of known concentration and including isoprenaline as an internal standard. […]"}},
  "note": "Like-named read-outs stand apart in the source and are kept apart here.",
  "data": [
    {"smiles": "CC(C)CC(N(C)C)C1(c2ccc(Cl)cc2)CCC1.Cl.O", "note": "(centres unmarked) [N,N-dimethyl-1-[1-(4-chlorophenyl)cyclobutyl]-3-methylbutylamine hydrochloride monohydrate]", "values": [
      {"measurement": "Brain DOPAC Levels", "setting": "[1]; A (drug alone), striatum, control 921 ± 56", "value": "601 ± 17", "unit": "ng/g wet wt"},
      {"measurement": "Brain DOPAC Levels", "setting": "[1]; A (drug alone), whole brain, control 62 ± 5", "value": "36 ± 4", "unit": "ng/g wet wt"},
      {"measurement": "Brain DOPAC Levels", "setting": "[1]; B (with probenecid 200 mg/kg i.p.), striatum, control 1325 ± 79", "value": "920 ± 70", "unit": "ng/g wet wt"},
      {"measurement": "Brain DOPAC Levels", "setting": "[1]; B (with probenecid 200 mg/kg i.p.), whole brain, control 169 ± 3", "value": "130 ± 9", "unit": "ng/g wet wt"},
      {"measurement": "% Inhibition of uptake", "setting": "[2]; 1 μM, Ex.1", "value": 31, "unit": "%"},
      {"measurement": "% Inhibition of uptake", "setting": "[2]; 1 μM, Ex.2", "value": 4, "unit": "%"},
      {"measurement": "% Inhibition of uptake", "setting": "[2]; 1 μM, Ex.3", "value": 12, "unit": "%"},
      {"measurement": "% Inhibition of uptake", "setting": "[2]; 10 μM, Ex.1", "value": 70, "unit": "%"},
      {"measurement": "% Inhibition of uptake", "setting": "[2]; 10 μM, Ex.2", "value": 35, "unit": "%"},
      {"measurement": "% Inhibition of uptake", "setting": "[2]; 10 μM, Ex.3", "value": 48, "unit": "%"},
      {"measurement": "% Inhibition of uptake", "setting": "[2]; 100 μM, Ex.1", "value": 96, "unit": "%"},
      {"measurement": "% Inhibition of uptake", "setting": "[2]; 100 μM, Ex.2", "value": 81, "unit": "%"},
      {"measurement": "% Inhibition of uptake", "setting": "[2]; 100 μM, Ex.3", "value": 86, "unit": "%"},
      {"measurement": "inhibition of 14C-dopamine uptake (in words)", "setting": "[2]; 100, 10 and 1 μM", "value": "inhibited ^14 C-dopamine uptake in a concentration-dependent manner"},
      {"measurement": "IC50", "setting": "[2]; Ex.1, 37° C., read-out: IC50", "value": 3.3, "unit": "µM"},
      {"measurement": "IC50", "setting": "[2]; Ex.2, 37° C., read-out: IC50", "value": 18, "unit": "µM"},
      {"measurement": "IC50", "setting": "[2]; Ex.3, 37° C., read-out: IC50", "value": 11, "unit": "µM"},
      {"measurement": "IC50", "setting": "[2]; mean of three replicate experiments, read-out: mean (±SEM) IC50 value for inhibition of dopamine uptake", "value": "11 ± 4.2", "unit": "µM"},
      {"measurement": "Brain DOPAC Levels", "setting": "[3]; A (drug alone), control 74 ± 5", "value": "54 ± 3", "unit": "ng/g wet wt"},
      {"measurement": "Brain DOPAC Levels", "setting": "[3]; B (with probenecid 200 mg/kg i.p.), control 116 ± 8", "value": "54 ± 3", "unit": "ng/g wet wt"}
    ]}
  ]
}
